Reference: publication PMC3823594, “Conformational Changes Underlying Pore Dilation in the Cytoplasmic Domain of Mammalian Inward Rectifier K^+ Channels” (PLoS ONE, 2013)
Substitutions are numbered along the chain they refer to.

What was measured:
Experiment in all cases: Two-electrode voltage clamp, ACh-dependent (m2R-dependent) K+ current activation
Format in all cases: cell-based
Kir3.2 E236S = biological target: T1, Kir3.2 E236S (Mus musculus, UniProt P48542, E236S); conditions: Kir3.2 E236S with porcine m2R in Xenopus oocytes; −120 mV; Hill equation fit
T1 sequence (P48542 19-425 E236S): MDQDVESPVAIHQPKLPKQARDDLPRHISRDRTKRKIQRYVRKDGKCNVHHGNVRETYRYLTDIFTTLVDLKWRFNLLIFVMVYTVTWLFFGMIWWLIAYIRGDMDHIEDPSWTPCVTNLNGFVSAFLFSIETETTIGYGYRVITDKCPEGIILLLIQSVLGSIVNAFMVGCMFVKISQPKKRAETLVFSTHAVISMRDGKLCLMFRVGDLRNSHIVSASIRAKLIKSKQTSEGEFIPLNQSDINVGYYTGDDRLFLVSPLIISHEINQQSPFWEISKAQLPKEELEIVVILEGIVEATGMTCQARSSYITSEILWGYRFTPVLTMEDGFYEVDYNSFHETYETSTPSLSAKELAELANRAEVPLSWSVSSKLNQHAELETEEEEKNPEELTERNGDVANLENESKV
T1 sequence (P06199 1-466 partner): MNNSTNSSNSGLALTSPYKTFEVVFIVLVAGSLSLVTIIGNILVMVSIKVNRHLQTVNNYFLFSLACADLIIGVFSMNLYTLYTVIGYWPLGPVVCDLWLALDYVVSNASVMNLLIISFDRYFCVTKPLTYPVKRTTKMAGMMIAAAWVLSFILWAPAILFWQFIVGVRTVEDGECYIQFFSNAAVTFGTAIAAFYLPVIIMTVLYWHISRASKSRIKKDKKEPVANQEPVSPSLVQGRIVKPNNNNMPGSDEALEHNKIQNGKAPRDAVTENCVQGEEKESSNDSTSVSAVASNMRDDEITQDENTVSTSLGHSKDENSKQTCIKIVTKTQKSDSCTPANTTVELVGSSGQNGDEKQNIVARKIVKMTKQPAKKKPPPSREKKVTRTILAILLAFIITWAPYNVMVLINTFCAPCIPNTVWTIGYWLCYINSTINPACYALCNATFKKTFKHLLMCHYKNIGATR
Source text: (§1) The mouse Kir3.2d isoform was subjected to functional analyses. The amino acid numbers correspond to the longest mouse Kir3.2 isoform. Point mutations were introduced using the QuikChange site-directed mutagenesis kit (Stratagene, La Jolla, CA), and the presence of the mutations was confirmed by direct DNA sequencing. The care of Xenopus laevis was in accordance with the guideline of the Institute of Experimental Animal Sciences, Osaka University. The protocol was approved by the Animal Experiment Committee of Osaka University. The frogs were deeply anesthetized by immersing in 0.2% tricaine methanesulfonate for 20 min at 18°C. A portion of an ovary lobe was surgically removed and incubated with collagenase to remove follicular cells. The oocytes were injected with the cRNAs of Kir3.2 and porcine m2-muscarinic receptor (m2R), and maintained in modified Barth’s solution at 18°C with daily solution changes. Electrophysiological studies were undertaken 48–72 h later at room temperature (20–25°C). Two-electrode voltage-clamp recordings from oocytes were performed using a GeneClamp 500B amplifier (Axon Instruments, Sunnyvale, CA). […] The bath solution contained 40 mM KCl, 50 mM NaCl, 3 mM MgCl2, 0.15 mM niflumic acid, and 5 mM HEPES-KOH (pH 7.4). The currents were recorded in the absence or presence of various concentrations of acetylcholine (ACh). Ba^2+ (3 mM) was added at the end of the recording to estimate the endogenous leak current. The data are expressed as mean values ± standard error of the mean. For the quantitative estimation of ACh-dependent current responses of the wild-type (WT) and mutant channels, the current amplitudes at the end of test pulses at each ACh concentration ([ACh]) were fitted using the following equation:
(§2) I=min+[(max−min)/(1+(EC50/[ACh])^nH)]
(§3) where I is the current amplitude measured at the [ACh], n H is the Hill coefficient, and EC50 is the concentration that induces 50% of the maximal response. […] The values of n H and EC50 were calculated using a non-linear least-squares best fit (SigmaPlot 9; Systat Software). Statistical analyses were performed by one-way ANOVA with post-hoc tests.

Kir3.2 E236A = biological target: T2, Kir3.2 E236A (Mus musculus, UniProt P48542, E236A); conditions: Kir3.2 E236A with porcine m2R in Xenopus oocytes; −120 mV; Hill equation fit
T2 sequence (P48542 19-425 E236A): T1 sequence (P48542 19-425 E236S) with S218A
T2 sequence (P06199 1-466 partner): T1 sequence (P06199 1-466 partner)
Source text: as §1, §2, §3

Kir3.2 M313G = biological target: T3, Kir3.2 M313G (Mus musculus, UniProt P48542, I313G); conditions: Kir3.2 M313G with porcine m2R in Xenopus oocytes; −120 mV; Hill equation fit
T3 sequence (P48542 19-425 I313G): T1 sequence (P48542 19-425 E236S) with S218E, I295G
T3 sequence (P06199 1-466 partner): T1 sequence (P06199 1-466 partner)
Source text: as §1, §2, §3

`CC(=O)OCC[N+](C)(C)C` [ACh, acetylcholine] showed a Hill coefficient (Kir3.2 E236S) of 0.86 ± 0.07, a Hill coefficient (Kir3.2 E236A) of 1.12 ± 0.04 and a Hill coefficient (Kir3.2 M313G) of 0.98 ± 0.07.
